The values that follow come from ChEMBL document CHEMBL5113421, “Development of novel conformationally restricted selective Clk1/4 inhibitors through creating an intramolecular hydrogen bond involving an imide linker” (Eur J Med Chem, 2022).

In assay [1] the target is T1, Dual specificity protein kinase CLK4 (Homo sapiens, UniProt Q9HAZ1). Description: Inhibition of human recombinant GST tagged full length CLK4 expressed in Baculovirus expression system at 1 uM.
The target in assay [2] is T1, Dual specificity protein kinase CLK4. Description: Inhibition of human recombinant GST tagged full length CLK4 expressed in Baculovirus expression system at 1 uM relative to control.
Target sequence in this assay (Q9HAZ1 whole entry, looked up): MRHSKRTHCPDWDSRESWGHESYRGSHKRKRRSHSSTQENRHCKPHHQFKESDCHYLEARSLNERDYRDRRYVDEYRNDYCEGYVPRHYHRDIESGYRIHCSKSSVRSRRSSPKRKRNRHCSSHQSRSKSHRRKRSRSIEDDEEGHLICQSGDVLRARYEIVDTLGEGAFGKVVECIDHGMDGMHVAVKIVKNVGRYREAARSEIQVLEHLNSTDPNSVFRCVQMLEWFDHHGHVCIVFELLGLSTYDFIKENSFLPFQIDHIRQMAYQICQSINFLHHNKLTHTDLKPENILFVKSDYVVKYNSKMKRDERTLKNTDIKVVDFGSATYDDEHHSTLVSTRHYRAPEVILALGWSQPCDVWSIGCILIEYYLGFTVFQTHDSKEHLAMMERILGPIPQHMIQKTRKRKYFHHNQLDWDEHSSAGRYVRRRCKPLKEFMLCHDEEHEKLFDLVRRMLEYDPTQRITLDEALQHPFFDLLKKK
For assay [3], the target named is Cyclin-dependent kinase 5/CDK5 activator 1 (Homo sapiens) (UniProt Q00535+Q15078). Description: Inhibition of human recombinant GST tagged/His-tagged full length CDK5/p25 expressed in Baculovirus expression system at 1 uM relative to control.
In assay [4] the target is T2, Serine/threonine-protein kinase haspin (Homo sapiens) (UniProt Q8TF76).
T2 sequence (whole entry): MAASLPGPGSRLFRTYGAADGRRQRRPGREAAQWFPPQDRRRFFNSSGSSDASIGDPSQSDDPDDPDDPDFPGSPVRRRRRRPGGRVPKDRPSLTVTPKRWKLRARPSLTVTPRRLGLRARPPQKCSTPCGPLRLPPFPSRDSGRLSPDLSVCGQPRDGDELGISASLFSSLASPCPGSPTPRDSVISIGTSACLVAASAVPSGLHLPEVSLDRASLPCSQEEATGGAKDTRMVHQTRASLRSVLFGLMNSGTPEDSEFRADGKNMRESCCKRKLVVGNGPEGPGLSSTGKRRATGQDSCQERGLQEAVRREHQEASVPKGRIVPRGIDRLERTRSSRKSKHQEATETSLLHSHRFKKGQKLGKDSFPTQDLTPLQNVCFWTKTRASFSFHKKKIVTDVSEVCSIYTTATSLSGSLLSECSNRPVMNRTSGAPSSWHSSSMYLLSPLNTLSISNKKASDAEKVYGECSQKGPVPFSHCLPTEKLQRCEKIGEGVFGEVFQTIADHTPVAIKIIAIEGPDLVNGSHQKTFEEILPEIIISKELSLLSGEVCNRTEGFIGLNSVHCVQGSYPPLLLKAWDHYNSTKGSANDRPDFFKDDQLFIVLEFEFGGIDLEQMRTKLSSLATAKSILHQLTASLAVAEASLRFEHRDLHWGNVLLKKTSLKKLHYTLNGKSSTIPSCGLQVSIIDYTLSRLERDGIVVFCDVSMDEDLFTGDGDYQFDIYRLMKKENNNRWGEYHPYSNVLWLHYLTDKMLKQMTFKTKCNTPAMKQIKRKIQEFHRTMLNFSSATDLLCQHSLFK
The assay can be described thus: Inhibition of human recombinant GST tagged full length Haspin catalytic domain expressed in Baculovirus expression system at 1 uM relative to control.

The species entered for assay [5] is Homo sapiens. Description: Inhibition of CK2 (unknown origin) at 1 uM relative to control.
Another assay concerns T-24. The assay can be described thus: Antiproliferative activity against human T24 cells assessed as cell growth inhibition measured after 3 days by MTT assay. It counts as functional. Conditions: T-24, 72 h, time 3 day. (Formazan colour is commonly taken as a measure of viable cells.)
The target in assay [6] is T3, Dual specificity protein kinase CLK2 (Homo sapiens, UniProt P49760). Description: Inhibition of human recombinant GST-tagged Clk2 expressed in Baculovirus expression system using GRSRSRSRSRSRSRS peptide as substrate incubated for 15 mins in presence of ATP by phosphoimager analysis.
Target sequence in this assay (P49760 whole entry): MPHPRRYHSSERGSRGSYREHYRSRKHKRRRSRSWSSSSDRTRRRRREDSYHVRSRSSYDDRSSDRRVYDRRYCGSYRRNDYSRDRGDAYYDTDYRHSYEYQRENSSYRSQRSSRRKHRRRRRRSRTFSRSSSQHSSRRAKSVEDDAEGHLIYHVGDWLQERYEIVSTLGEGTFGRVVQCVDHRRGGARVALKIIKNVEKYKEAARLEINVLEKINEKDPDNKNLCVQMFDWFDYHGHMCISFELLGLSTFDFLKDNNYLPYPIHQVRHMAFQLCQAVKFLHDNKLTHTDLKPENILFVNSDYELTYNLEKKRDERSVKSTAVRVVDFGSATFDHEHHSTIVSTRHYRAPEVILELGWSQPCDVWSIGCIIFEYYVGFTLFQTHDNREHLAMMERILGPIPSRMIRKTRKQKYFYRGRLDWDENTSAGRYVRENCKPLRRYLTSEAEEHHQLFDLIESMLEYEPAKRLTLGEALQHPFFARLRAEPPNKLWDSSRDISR
Assay [7] deals with BDNF/NT-3 growth factors receptor (Homo sapiens) (UniProt Q16620). Description: Inhibition of human recombinant His tagged full length TRKB expressed in Baculovirus expression system at 1 uM relative to control.
For assay [8], the target named is T3, Dual specificity protein kinase CLK2. Description: Inhibition of human recombinant GST-tagged Clk2 expressed in Baculovirus expression system at 0.25 uM using GRSRSRSRSRSRSRS peptide as substrate incubated for 15 mins in presence of ATP by phosphoimager analysis relative to control.
Target sequence in this assay (P49760 whole entry, looked up): as the sequence (P49760 whole entry) above
The target of assay [9] is T4, Dual specificity protein kinase CLK1 (Homo sapiens, UniProt P49759). The assay can be described thus: Inhibition of human recombinant GST-tagged Clk1 (129 to 484 residues) expressed in Escherichia coli expression system using GRSRSRSRSRSRSRS peptide as substrate incubated for 15 mins in presence of ATP by phosphoimager analysis.
Target sequence in this assay (P49759 whole entry, the tested form may be a part, canonical isoform): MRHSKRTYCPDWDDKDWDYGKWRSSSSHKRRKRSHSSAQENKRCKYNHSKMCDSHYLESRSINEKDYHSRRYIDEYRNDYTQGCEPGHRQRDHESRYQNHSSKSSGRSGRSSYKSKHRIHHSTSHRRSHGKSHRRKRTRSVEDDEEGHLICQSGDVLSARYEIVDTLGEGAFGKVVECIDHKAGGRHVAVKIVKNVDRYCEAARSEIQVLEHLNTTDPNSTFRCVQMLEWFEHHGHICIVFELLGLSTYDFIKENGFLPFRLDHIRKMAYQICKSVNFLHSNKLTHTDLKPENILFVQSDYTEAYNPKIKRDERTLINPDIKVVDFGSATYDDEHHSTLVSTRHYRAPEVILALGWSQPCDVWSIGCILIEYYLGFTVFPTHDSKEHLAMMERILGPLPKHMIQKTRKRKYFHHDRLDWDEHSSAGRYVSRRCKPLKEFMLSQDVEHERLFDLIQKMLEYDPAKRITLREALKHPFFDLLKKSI
For assay [10], the target named is Casein kinase I isoform delta (Homo sapiens) (UniProt P48730). The assay can be described thus: Inhibition of human recombinant GST tagged full length CSNK1D expressed in Baculovirus expression system at 1 uM relative to control.
In assay [11] the target is T5, Dual specificity tyrosine-phosphorylation-regulated kinase 2 (Homo sapiens) (UniProt Q92630).
T5 sequence (whole entry): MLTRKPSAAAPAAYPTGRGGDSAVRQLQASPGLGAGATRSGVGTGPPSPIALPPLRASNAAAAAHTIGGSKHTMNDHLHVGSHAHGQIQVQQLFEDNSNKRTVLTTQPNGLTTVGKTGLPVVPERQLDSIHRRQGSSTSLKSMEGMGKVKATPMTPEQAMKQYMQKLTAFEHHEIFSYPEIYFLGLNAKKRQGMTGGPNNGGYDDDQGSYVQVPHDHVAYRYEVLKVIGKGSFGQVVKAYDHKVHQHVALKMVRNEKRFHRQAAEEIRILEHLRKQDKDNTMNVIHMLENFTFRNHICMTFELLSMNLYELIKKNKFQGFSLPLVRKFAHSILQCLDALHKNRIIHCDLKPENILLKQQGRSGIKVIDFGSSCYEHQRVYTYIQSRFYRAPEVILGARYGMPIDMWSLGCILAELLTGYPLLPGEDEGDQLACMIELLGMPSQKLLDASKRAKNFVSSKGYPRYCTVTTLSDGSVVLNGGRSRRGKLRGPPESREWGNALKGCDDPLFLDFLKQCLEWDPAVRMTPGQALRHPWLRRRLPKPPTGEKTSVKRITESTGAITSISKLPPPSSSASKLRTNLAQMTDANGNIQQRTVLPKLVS
The assay can be described thus: Inhibition of human recombinant GST tagged full length DYRK2 expressed in Escherichia coli expression system at 1 uM relative to control.

Assay [12] deals with Dual specificity tyrosine-phosphorylation-regulated kinase 1A (Homo sapiens) (UniProt Q13627). The assay can be described thus: Inhibition of human recombinant GST tagged full length DYRK1A expressed in Baculovirus expression system at 1 uM relative to control.
The target in assay [13] is T4, Dual specificity protein kinase CLK1. The assay can be described thus: Inhibition of human recombinant GST-tagged Clk1 (129 to 484 residues) expressed in Escherichia coli expression system at 100 nM using GRSRSRSRSRSRSRS peptide as substrate incubated for 15 mins in presence of ATP by phosphoimager analysis relative to control.
Target sequence in this assay (P49759 whole entry, looked up, the tested form may be a part, canonical isoform): as the sequence (P49759 whole entry, the tested form may be a part, canonical isoform) above
In assay [14] the target is Homeodomain-interacting protein kinase 1 (Homo sapiens) (UniProt Q86Z02). The assay can be described thus: Inhibition of human recombinant GST tagged HIPK1 expressed in Baculovirus expression system at 1 uM relative to control.
Assay [15] addresses Serine/threonine-protein kinase pim-1 (Homo sapiens) (UniProt P11309). The assay can be described thus: Inhibition of human recombinant His tagged full length Pim1 expressed in Baculovirus expression system at 1 uM relative to control.
The species named for assay [16] is Homo sapiens. Description: Selectivity index, ratio of IC50 for human Clk2 to IC50 for human Clk1 by phosphoimager analysis.
For assay [17], the target named is SRSF protein kinase 1 (Homo sapiens) (UniProt Q96SB4). The assay can be described thus: Inhibition of human recombinant His tagged full length SRPK1 expressed in Baculovirus expression system at 1 uM relative to control.
Assay [18] deals with Dual specificity protein kinase CLK3 (Homo sapiens) (UniProt P49761). Description: Inhibition of human recombinant GST-tagged full length CLK3 expressed in Baculovirus expression system at 1 uM relative to control.
Assay [19] is filed under the species Homo sapiens. Description: Selectivity ratio of IC50 for human Clk2 to IC50 for human Clk1 by ADP-Glo assay. A general note: ADP-Glo turns the ADP formed in a reaction into a luminescent signal.
The species entered for assay [20] is Homo sapiens. Description: Selectivity ratio of IC50 for human Clk2 to IC50 for human Clk1.
Assay [21] is filed under the species Homo sapiens. Description: Selectivity ratio of IC50 for human DYRK1A to IC50 for human Clk1.

What is called IC50 is the concentration needed to halve the response being measured. As a reminder, the inhibition is how much of the control response was suppressed. As usually defined, the GI50 is the concentration giving 50% growth inhibition.

Chain of BDNF/NT-3 growth factors receptor (Homo sapiens) (Q16620 32-822 limits assumed): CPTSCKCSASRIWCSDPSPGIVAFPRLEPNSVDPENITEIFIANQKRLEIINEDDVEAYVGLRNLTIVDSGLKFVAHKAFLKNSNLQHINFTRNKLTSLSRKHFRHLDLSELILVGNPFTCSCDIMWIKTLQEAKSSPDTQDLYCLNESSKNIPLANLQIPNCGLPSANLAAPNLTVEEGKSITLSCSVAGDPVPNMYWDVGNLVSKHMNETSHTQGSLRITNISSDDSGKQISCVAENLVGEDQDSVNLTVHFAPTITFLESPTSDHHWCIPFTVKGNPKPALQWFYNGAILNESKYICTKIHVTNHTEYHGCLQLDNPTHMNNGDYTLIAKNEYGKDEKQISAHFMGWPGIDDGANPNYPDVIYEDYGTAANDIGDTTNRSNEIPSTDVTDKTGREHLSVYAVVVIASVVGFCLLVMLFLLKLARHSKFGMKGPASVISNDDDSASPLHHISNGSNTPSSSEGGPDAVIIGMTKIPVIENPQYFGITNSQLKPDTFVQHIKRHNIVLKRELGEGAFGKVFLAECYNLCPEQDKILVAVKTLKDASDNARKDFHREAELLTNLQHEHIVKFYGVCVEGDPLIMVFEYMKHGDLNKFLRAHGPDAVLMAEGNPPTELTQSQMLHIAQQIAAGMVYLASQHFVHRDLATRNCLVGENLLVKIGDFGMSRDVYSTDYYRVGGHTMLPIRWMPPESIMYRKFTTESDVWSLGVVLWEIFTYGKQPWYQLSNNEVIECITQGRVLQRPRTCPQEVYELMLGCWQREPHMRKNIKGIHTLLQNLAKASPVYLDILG
Chain of Serine/threonine-protein kinase pim-1 (Homo sapiens) (P11309 whole entry, looked up): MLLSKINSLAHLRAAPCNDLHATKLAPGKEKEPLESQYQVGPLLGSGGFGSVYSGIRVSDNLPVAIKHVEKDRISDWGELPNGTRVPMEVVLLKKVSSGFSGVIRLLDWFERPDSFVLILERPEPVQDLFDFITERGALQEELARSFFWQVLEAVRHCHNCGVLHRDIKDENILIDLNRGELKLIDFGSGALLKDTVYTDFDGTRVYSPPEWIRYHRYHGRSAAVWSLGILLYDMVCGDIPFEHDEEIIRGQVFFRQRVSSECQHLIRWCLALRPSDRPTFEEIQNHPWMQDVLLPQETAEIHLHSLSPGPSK
Chain of Casein kinase I isoform delta (Homo sapiens) (P48730 whole entry, looked up, canonical isoform): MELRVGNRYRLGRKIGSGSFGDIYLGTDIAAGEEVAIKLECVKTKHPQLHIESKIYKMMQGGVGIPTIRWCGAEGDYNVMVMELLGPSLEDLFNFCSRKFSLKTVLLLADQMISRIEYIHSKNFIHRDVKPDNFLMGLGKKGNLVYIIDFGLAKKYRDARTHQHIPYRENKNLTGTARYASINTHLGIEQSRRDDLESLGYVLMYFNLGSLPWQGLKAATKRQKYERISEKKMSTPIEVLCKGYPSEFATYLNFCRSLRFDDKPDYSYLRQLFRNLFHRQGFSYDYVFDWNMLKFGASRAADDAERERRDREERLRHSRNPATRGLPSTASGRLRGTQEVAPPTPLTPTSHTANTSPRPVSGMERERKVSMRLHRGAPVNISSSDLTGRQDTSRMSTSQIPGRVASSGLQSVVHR
Chain of SRSF protein kinase 1 (Homo sapiens) (Q96SB4 whole entry): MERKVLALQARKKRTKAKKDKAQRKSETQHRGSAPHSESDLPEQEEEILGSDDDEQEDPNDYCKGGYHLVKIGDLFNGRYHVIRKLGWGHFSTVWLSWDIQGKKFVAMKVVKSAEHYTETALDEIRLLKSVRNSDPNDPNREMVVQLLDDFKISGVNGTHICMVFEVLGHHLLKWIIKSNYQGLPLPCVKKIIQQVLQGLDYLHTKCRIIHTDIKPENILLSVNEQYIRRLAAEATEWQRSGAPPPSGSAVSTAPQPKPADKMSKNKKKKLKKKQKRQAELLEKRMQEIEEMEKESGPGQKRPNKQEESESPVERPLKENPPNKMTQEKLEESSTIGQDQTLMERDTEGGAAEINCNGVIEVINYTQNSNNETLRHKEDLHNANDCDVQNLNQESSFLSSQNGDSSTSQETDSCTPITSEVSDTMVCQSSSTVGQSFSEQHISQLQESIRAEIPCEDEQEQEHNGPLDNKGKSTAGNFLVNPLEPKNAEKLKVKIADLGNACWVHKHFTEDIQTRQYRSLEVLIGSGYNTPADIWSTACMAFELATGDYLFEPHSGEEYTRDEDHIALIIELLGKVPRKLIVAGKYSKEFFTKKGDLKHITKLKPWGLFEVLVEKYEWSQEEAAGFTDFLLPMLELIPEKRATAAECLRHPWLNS

As for `COc1ccc2sc(C(=O)NC(=O)c3cc(Cl)ccc3OC)cc2c1`, the IC50 was 6.6 nM in assay [1], 486 nM in assay [6] and 9.7 nM in assay [9]. The inhibition in assay [2] amounted to 45%; in assay [3], 3%; in assay [4], 24%; in the assay filed under Homo sapiens [5], 4%; in assay [7], 3%; in assay [8], 19.9%. The inhibition is 7% in assay [10]; 14% in [11]; 45% in assay [12]; 87.1% in [13]; 1% in assay [14]; 31% in assay [15]. Moreover, the results for the inhibition in assay [17] and in assay [18] were 8% and 57%, respectively. In addition, in the assay on T-24, the GI50 was determined as 1100 nM. Further, in the assay listed under Homo sapiens [16], the Ratio IC50 came out at 50.
For the compound `CC(C)(C)c1ccc(C(=O)Nc2cn3cc(-c4cn[nH]c4)ccc3n2)cn1`, the Ratio IC50 in the assay filed under Homo sapiens [19] turned out to be 2.2.
In the case of `COc1ccc2sc(C(=O)NC(=O)c3ccc(F)cc3OC)cc2c1`, the inhibition in assay [2] was determined as 96%; in assay [4] it was 29%; in the assay filed under Homo sapiens [5] it was 5%; in assay [7], 10%; in assay [8], 47.1%; in assay [10] it was 11%. The inhibition stood at 48% in assay [12]; 74.5% in assay [13]; 7% in assay [14]; 52% in assay [15]; 4% in assay [17]; 59% in assay [18]. Further, the GI50 in the assay with T-24 was more than 15000 nM. Moreover, the results for the IC50 in assay [6] and in assay [9] were more than 250 nM and 4 nM, respectively. The Ratio IC50 in the assay filed under Homo sapiens [16] is more than 62.5.
Consider `COc1ccc2sc(C(=O)NC(=O)c3cc(F)ccc3OC)cc2c1`, for which the half-maximal inhibitory concentration (IC50) in [6] turned out to be 250 nM; in assay [9], 18.4 nM. Also, the inhibition was 52.6% in assay [8] and 83.3% in [13]. Moreover, in the assay filed under Homo sapiens [16], the Ratio IC50 is 13.6.
The corresponding values for `COc1ccc2sc(C(=O)NC(=O)c3ccc(Br)cc3OC)cc2c1` are more than 250 nM, 75 nM, 3.4%, 61% and more than 3.3.
As for `COc1ccc2sc(C(=O)N(C)Cc3cc(F)cc(F)c3)cc2c1`, the Ratio IC50 came out at 9.8 in the assay filed under Homo sapiens [20] and 28 in the assay listed under Homo sapiens [21].
`COc1ccc2sc(C(=O)NC(=O)c3cccc(F)n3)cc2c1`: the concentration for 50% growth inhibition (GI50) in the assay on T-24 is more than 15000 nM. In addition, the results for the half-maximal inhibitory concentration (IC50) in [6] and in assay [9] were 250 nM and 20.9 nM, respectively. The inhibition is 53.8% in [8] and 67.1% in assay [13]. In addition, the Ratio IC50 in the assay filed under Homo sapiens [16] amounted to 12.
